Assays:
[1] = tested on: acute myelocytic leukemia (AML) cell line MV4-11; experiment: Oncology cell growth assay (3-day proliferation, CellTiter-Glo); format: cell-based; conditions: Homo sapiens, MV4-11, 72 h, MV4-11 cells, 3000 cells/well, compounds listed under IC50 range headings, read-out: MV411 IC50 (gIC50, inhibition of proliferation)
Method in brief: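 MV4-11 AML cells (RPMI 1640, 10% FBS) plated at 3000 cells/well and exposed 72 h to compound at final 10 to 0.0045 μM (3-fold series). Viability read by CellTiter-Glo luminescence; gIC50 from four-parameter logistic fit between DMSO control and no-cell background.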

[2] = molecular target: T1, BRD4 Bromodomain 1 (BRD4 BD1) (Homo sapiens, UniProt O60885); experiment: AlphaScreen binding assay, BRD4 BD1; conditions: His-tagged BRD4 BD1 50 nM, biotinylated H4 (1-21) K5/8/12/16 tetra-acetylated peptide 50 nM, compounds listed under IC50 range headings
T1 construct: 44-168 and BRD4 BD2
Method in brief: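 An AlphaScreen competition format was used with His-BRD4 BD1 or BD2 and biotin-H4 K5/8/12/16-acetyl peptide, each at matched final levels of 50 nM (BD1) or 100 nM (BD2). Incubation in HEPES/NaCl buffer with 0.1% BSA and 0.01% Triton X-100 ran ≥1 h before IC50 determination.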

Row | IC50 [1] [µM] | IC50 [2] [µM] | Structure (SMILES)
1 | < 0.5 | 0.1 to 1 | COC(=O)N1c2ccc(-c3cn(C)nn3)c(Oc3ccccc3)c2CC[C@@H]1C [I-232, (S)-methyl 2-methyl-6-(1-methyl-1H-1,2,3-triazol-4-yl)-5-phenoxy-3,4-dihydroquinoline-1(2H)-carboxylate]
2 | < 0.5 | 0.1 to 1 | COC(=O)N1c2ccc(-c3cnn(C4CNC4)c3)c(Oc3ccccc3F)c2CC[C@@H]1C [I-261, (S)-methyl 6-(1-(azetidin-3-yl)-1H-pyrazol-4-yl)-5-(2-fluorophenoxy)-2-methyl-3,4-dihydroquinoline-1(2H)-carboxylate]
3 | < 0.5 | 0.1 to 1 | COc1ccccc1Oc1c(-c2cnn(C3CCNCC3)c2)ccc2c1CC[C@H](C)N2C(=O)C1CC1 [I-194, (S)-cyclopropyl(5-(2-methoxyphenoxy)-2-methyl-6-(1-(piperidin-4-yl)-1H-pyrazol-4-yl)-3,4-dihydroquinolin-1(2H)-yl)methanone]
4 | < 0.5 | 0.1 to 1 | COC(=O)N1c2ccc(-c3cnn(C4CCNCC4OC)c3)c(Oc3ccc(F)cc3)c2CC[C@@H]1C (stereo partly drawn) [I-291, (2S)-methyl 5-(4-fluorophenoxy)-6-(1-(3-methoxypiperidin-4-yl)-1H-pyrazol-4-yl)-2-methyl-3,4-dihydroquinoline-1(2H)-carboxylate]
5 | < 0.5 | 1 to 10 | CC(=O)N1c2ccc(-c3cnn(C4CCNCC4)c3)c(Oc3cccc(C)n3)c2CC[C@@H]1C [I-334, (S)-1-(2-methyl-5-(6-methylpyridin-2-yloxy)-6-(1-(piperidin-4-yl)-1H-pyrazol-4-yl)-3,4-dihydroquinolin-1 (2H)-yl)ethanone]
6 | < 0.5 | 0.1 to 1 | COC(=O)N1c2ccc(-c3cnn(C4CNC4)c3)c(Oc3ccccc3)c2CC[C@@H]1C [I-193, (S)-methyl 6-(1-(azetidin-3-yl)-1H-pyrazol-4-yl)-2-methyl-5-phenoxy-3,4-dihydroquinoline-1(2H)-carboxylate]
7 | < 0.5 | 0.1 to 1 | COC(=O)N1c2ccc(-c3cnn(C4CNC4C)c3)c(Oc3ccc(F)cc3)c2CC[C@@H]1C (stereo partly drawn) [I-298, methyl (2S)-5-(4-fluorophenoxy)-2-methyl-6-(1-(2-methylazetidin-3-yl)-1H-pyrazol-4-yl)-3,4-dihydroquinoline-1(2H)-carboxylate]
8 | < 0.5 | 0.1 to 1 | CC(=O)N1c2ccc(-c3cnn(C4CCNCC4)c3)c(Oc3ccccn3)c2CC[C@@H]1C [I-203, (S)-1-(2-methyl-6-(1-(piperidin-4-yl)-1H-pyrazol-4-yl)-5-(pyridin-2-yloxy)-3,4-dihydroquinolin-1(2H)-yl)ethanone]
9 | < 0.5 | 0.1 to 1 | CC(=O)N1c2ccc(-c3cnn(C4CCNCC4)c3)c(Oc3cc(F)ccc3F)c2CC[C@@H]1C [I-276, (S)-1-(5-(2,5-difluorophenoxy)-2-methyl-6-(1-(piperidin-4-yl)-1H-pyrazol-4-yl)-3,4-dihydroquinolin-1(2H)-yl)ethanone]
10 | < 0.5 | 0.1 to 1 | COC(=O)N1c2c(F)cc(-c3cnn(C4CCNCC4)c3)c(Oc3ccccc3)c2CC[C@@H]1C [I-205, (S)-methyl 8-fluoro-2-methyl-5-phenoxy-6-(1-(piperidin-4-yl)-1H-pyrazol-4-yl)-3,4-dihydroquinoline-1(2H)-carboxylate]
11 | < 0.5 | 0.1 to 1 | COC(=O)N1c2ccc(-c3cnn(C4CCNCC4)c3)c(Oc3cccc(C)n3)c2CC[C@@H]1C [I-333, (S)-methyl 2-methyl-5-(6-methylpyridin-2-yloxy)-6-(1-(piperidin-4-yl)-1H-pyrazol-4-yl)-3,4-dihydroquinoline-1(2H)-carboxylate]
12 | < 0.5 | 0.1 to 1 | C[C@H]1CCc2c(ccc(-c3cn(C)nn3)c2Oc2cc(F)ccc2F)N1C(=O)C1CC1 [I-318, (S)-cyclopropyl(5-(2,5-difluorophenoxy)-2-methyl-6-(1-methyl-1H-1,2,3-triazol-4-yl)-3,4-dihydroquinolin-1(2H)-yl)methanone]
13 | < 0.5 | 0.1 to 1 | COC(=O)N1c2ccc(-c3cnn(C4CCNCC4)c3)c(Oc3cc(F)ccc3F)c2CC[C@@H]1C [I-273, (S)-methyl 5-(2,5-difluorophenoxy)-2-methyl-6-(1-(piperidin-4-yl)-1H-pyrazol-4-yl)-3,4-dihydroquinoline-1(2H)-carboxylate]
14 | > 1 | ≥ 10 | C[C@H]1CCc2c(ccc(-n3cccn3)c2Oc2ccccc2)N1C(=O)C1CC1 [I-325, (S)-cyclopropyl(2-methyl-5-phenoxy-6-(1H-pyrazol-1-yl)-3,4-dihydroquinolin-1(2H)-yl)methanone]
15 | < 0.5 | 0.1 to 1 | COC(=O)N1c2ccc(-c3cnn(C4CCNCC4)c3)c(Oc3cccc(OC)n3)c2CC[C@@H]1C [I-335, (S)-methyl 5-(6-methoxypyridin-2-yloxy)-2-methyl-6-(1-(piperidin-4-yl)-1H-pyrazol-4-yl)-3,4-dihydroquinoline-1(2H)-carboxylate]
16 | < 0.5 | 0.1 to 1 | C[C@H]1CCc2c(ccc(-c3cnn(C4CNC4)c3)c2Oc2cc(F)cc(F)c2)N1C(=O)C1CC1 [I-181, (S)-(6-(1-(azetidin-3-yl)-1H-pyrazol-4-yl)-5-(3,5-difluorophenoxy)-2-methyl-3,4-dihydroquinolin-1(2H)-yl)(cyclopropyl)methanone]
17 | < 0.5 | 0.1 to 1 | COC(=O)N1c2ccc(-c3cnn(C4CNC4)c3)c(Oc3cc(F)ccc3F)c2CC[C@@H]1C [I-271, (S)-methyl 6-(1-(azetidin-3-yl)-1H-pyrazol-4-yl)-5-(2,5-difluorophenoxy)-2-methyl-3,4-dihydroquinoline-1(2H)-carboxylate]
18 | < 0.5 | 0.1 to 1 | C[C@H]1CCc2c(ccc(-c3cnn(C4CCNCC4)c3)c2Oc2cccc(F)n2)N1C(=O)C1CC1 [I-97, (S)-cyclopropyl(5-(6-fluoropyridin-2-yloxy)-2-methyl-6-(1-(piperidin-4-yl)-1H-pyrazol-4-yl)-3,4-dihydroquinolin-1(2H)-yl)methanone]
19 | < 0.5 | 0.1 to 1 | C[C@H]1CCc2c(ccc(-c3cnn(C4CCNCC4)c3)c2Oc2cccc(F)c2)N1C(=O)C1CC1 [I-171, (S)-cyclopropyl(5-(3-fluorophenoxy)-2-methyl-6-(1-(piperidin-4-yl)-1H-pyrazol-4-yl)-3,4-dihydroquinolin-1(2H)-yl)methanone]

Row | Structure (SMILES) | IC50 [1] [µM] | IC50 [2] [µM]
20 | C[C@H]1CCc2c(ccc(-c3ccnn3C3CCNCC3)c2OC2CCC2)N1C(=O)C1CC1 [I-306, ((2S)-5-cyclobutoxy-2-methyl-6-(1-(piperidin-4-yl)-1H-pyrazol-5-yl)-3,4-dihydroquinolin-1(2H)-yl)(cyclopropyl)methanone] | > 1 | ≥ 10
21 | COC(=O)N1c2ccc(-c3csc(N4CC(O)C4)n3)c(OC3CCC3)c2CC[C@@H]1C [I-317, (S)-methyl 5-cyclobutoxy-6-(2-(3-hydroxyazetidin-1-yl)thiazol-4-yl)-2-methyl-3,4-dihydroquinoline-1(2H)-carboxylate] | 0.5 to 1 | 0.1 to 1
22 | COC(=O)N1c2ccc(-c3cnn(C4CC5CNCC5C4)c3)c(OC3CCC3)c2CC[C@@H]1C (stereo partly drawn) [I-109, (2S)-methyl 5-cyclobutoxy-2-methyl-6-(1-(octahydrocyclopenta[c]pyrrol-5-yl)-1H-pyrazol-4-yl)-3,4-dihydroquinoline-1(2H)-carboxylate] | < 0.5 | 0.1 to 1
23 | COC(=O)N1c2ccc(-c3cn(C)c(C4CCNCC4)n3)c(OC3CCC3)c2CC[C@@H]1C [I-304, methyl (S)-5-cyclobutoxy-2-methyl-6-(1-methyl-2-(piperidin-4-yl)-1H-imidazol-4-yl)-3,4-dihydroquinoline-1(2H)-carboxylate] | > 1 | ≥ 10
24 | C[C@H]1CCc2c(OC3CCC3)c(-c3cnn(C4CC4)c3)cc(F)c2N1C(=O)C1CC1 [I-69, (S)-(5-cyclobutoxy-6-(1-cyclopropyl-1H-pyrazol-4-yl)-8-fluoro-2-methyl-3,4-dihydroquinolin-1(2H)-yl)(cyclopropyl)methanone] | 0.5 to 1 | 1 to 10
25 | C[C@H]1CCc2c(ccc(-n3nccn3)c2OC2CCC2)N1C(=O)C1CC1 [I-326, (S)-(5-cyclobutoxy-2-methyl-6-(2H-1,2,3-triazol-2-yl)-3,4-dihydroquinolin-1(2H)-yl)(cyclopropyl)methanone] | > 1 | ≥ 10
26 | C[C@H]1CCc2c(ccc(-c3ccn(C4CCNCC4)n3)c2OC2CCC2)N1C(=O)C1CC1 [I-305, (S)-(5-cyclobutoxy-2-methyl-6-(1-(piperidin-4-yl)-1H-pyrazol-3-yl)-3,4-dihydroquinolin-1 (2H)-yl)(cyclopropyl)methanone] | < 0.5 | 1 to 10
27 | C[C@H]1CCc2c(ccc(-c3c[nH]nn3)c2OC2CCC2)N1C(=O)C1CC1 [I-128, (S)-(5-cyclobutoxy-2-methyl-6-(1H-1,2,3-triazol-4-yl)-3,4-dihydroquinolin-1(2H)-yl)(cyclopropyl)methanone] | 0.5 to 1 | 0.1 to 1
28 | COC(=O)N1c2c(F)cc(-c3cn[nH]c3)c(OC3CCC3)c2CC[C@@H]1C [I-72, (S)-methyl 5-cyclobutoxy-8-fluoro-2-methyl-6-(1H-pyrazol-4-yl)-3,4-dihydroquinoline-1(2H)-carboxylate] | < 0.5 | 0.1 to 1
